Read-outs that look alike come from different tables or passages of the source. Where only a bound is given, the exact number is not on record here.

The conditions of data set [1]: cited from earlier work.
Data set [2] concerns the target T1, CpLIP2 lipase (Candida parapsilosis, UniProt Q8NIN8). Put plainly: Inhibition of CpLIP2 hydrolytic activity (ethyl oleate hydrolysis, GC). Type of data set: biochemical. To be noted: for Ki: non-competitive or uncompetitive model. On the procedure:
The effect of inhibitor concentrations on the hydrolysis reaction rate in standard conditions was assumed to follow either a non-competitive or an uncompetitive model, corresponding to Equation (1):(1) Ki=I/ V0/Vi−1 where V0 and Vi are the initial rates of the reaction without or with inhibitor at concentration I.
Standard CpLIP2 hydrolytic activity measurement. Hydrolysis activities were determined by measuring the initial rates of fatty acid and esters production (µmol·min^−1·mL^−1), using ethyl oleate (C18:1, EE) as substrates. Specific activity is the total activity expressed in µmol·min^−1·mL^−1 in relation to protein concentration (mg·mL^−1). Experiments were conducted as described by. Hydrolysis of ethyl oleate (EO) was performed in aqueous emulsions at 30 °C. This emulsion consisted of 100 µmol·mL^−1 EO emulsified by sonication (Branson Sonifier 250, 20 s, 200 watts, 145 µm amplitude) in an aqueous solution of 20 g·L^−1 poly vinyl alcohol. The reactions of hydrolysis were prepared in glass test tube by adding 100 μL of ethyl oleate emulsion to 800 µL of sodium phosphate buffer 50 mM, pH 6.5; then the solutions were incubated in water bath at 30 °C for 5 min. The reaction was started by the addition of 100 µL of enzyme solution of CpLIP2 with final concentration 3 µg·mL^−1 with activity 2000 U/mL.
The enzyme solution was pre-incubated at 25 °C, with continuous stirring at 350 rpm. Pre-incubation was conducted with 1980 µL CpLIP2 lipase diluted in sodium NaH2PO4/Na2HPO4 phosphate buffer (50 mM, pH 6.5) containing 20 µL absolute EtOH at 2 different times (1 and 30 min). This pre-incubation phase was conducted in closed vials placed during 2 h on a Radleys StarFish Multi-Experiment Workstation. The reaction was conducted for 15 min at 30 °C, and then stopped by adding 950 µL of a mixture of ethanol/sulphuric acid (100:0.8, v/v). After the addition of 50 µL of internal standards (ethanolic solution of pentadecanoic acid and its ethyl and methyl esters, 1 µmol each), lipids were extracted from the mixture with 1 mL of hexane. Samples were then prepared for analyzing esters and free fatty acids by gas chromatography (GC) as follows. Hexane extract (200 µL) was reacted with 25 µL pyridine and 25 µL N-methyl-tri (methylsilyl)-trifluoroacetamide (MSTFA) as silylating agent. Mixtures were incubated in water bath at 50 °C for 20 min, and then samples were ready for analysis. Reaction rates were determined by the analysis of fat composition by capillary gas chromatography after 15 min reaction. It was checked that less than 30% of the total substrate was converted at the end of the 15 min reaction.
A Shimadzu GC 2010 plus gas chromatograph equipped with a flame ionization detector, an automatic sampler (injected volume 0.1 μL) and a split/splitless injector was used for analysis. The capillary column was a DB-5ht (15 m × 0.25 mm, Phenomenex, Le Pecq, France). The helium carrier flow was 1 mL min^−1and the split ratio was 1:50. Temperature conditions were, for reactions with individual substrates: injector 280 °C, detector 290 °C, oven 200–225 °C at 10 °C min^−1 then to 260 °C at 35 °C·min^−1 for ethyl ester (EE) and fatty acid (FA) of C18:1. Calibration curves were realized using emulsions of mixtures of FA and monoesters prepared according to the same protocol, without enzyme and alcohol.
In order to measure the residual lipase activity in the presence of potential inhibitors, the previous method was conducted in the presence and absence of the inhibitors. For each potential inhibitor, the lipase-catalyzed rate of hydrolysis was evaluated after a pre-incubation period between the lipase and the potential inhibitors, which were solubilized in absolute ethanol at 1% of final concentration. The preincubation was performed at 25 °C with continuous stirring at 350 rpm with different concentration of inhibitors (14, 27.5, 55 µM) which represented, respectively 25, 50, 100-fold the final lipase concentration (0.55 µM). […]

Data set [3] addresses T1, CpLIP2 lipase. Put plainly: Fluorescence resonance energy transfer between CpLIP2 and flavonols (Förster theory). On R0 (Förster distance): values in Å. On r (distance between acceptor and donor): values in Å. Type of data set: binding. As to conditions: for E (energy transfer efficiency) / J (overlap integral) / R0 (Förster distance) / r (distance between acceptor and donor) / r/R0: 2.5 µM, 308 K, pH 7.0. From the text:
Fluorescence emission spectra of CpLIP2 lipase overlap the UV absorption spectrum of each flavonol studied, that may induce fluorescence resonance energy transfer (FRET) governed by the binding distance r between the protein behaving as energy donor and the flavonol energy acceptor. The binding distance r can be calculated via Förster theory with the following Equations (10) and (11):(10) E=1−F/ F0=R06/ R06+r^6 where E is the energy transfer efficiency, which is the photons fraction absorbed and transferred by the donor to the acceptor, F and F0 are the fluorescence intensities of donor (CpLIP2) in the presence or absence of acceptor (flavonol) at the same concentrations. The parameter r is the distance between acceptor and donor, and R0 is the Förster distance, which is the critical energy transfer distance when 50% of the excitation energy is transferred from the donor to the acceptor. […] The value of R0 ranges from 20–90 Å for biological macromolecules.

Where [4] appears, read: estimated after 30 min of pre-incubation.
Where [5] appears, read: concentration not stated (14–55 µM tested), up to 30 min pre-incubation.
Setting [6] is: read-out: inhibition of CpLIP2 activity.

T1 sequence (Q8NIN8 entry or part of it): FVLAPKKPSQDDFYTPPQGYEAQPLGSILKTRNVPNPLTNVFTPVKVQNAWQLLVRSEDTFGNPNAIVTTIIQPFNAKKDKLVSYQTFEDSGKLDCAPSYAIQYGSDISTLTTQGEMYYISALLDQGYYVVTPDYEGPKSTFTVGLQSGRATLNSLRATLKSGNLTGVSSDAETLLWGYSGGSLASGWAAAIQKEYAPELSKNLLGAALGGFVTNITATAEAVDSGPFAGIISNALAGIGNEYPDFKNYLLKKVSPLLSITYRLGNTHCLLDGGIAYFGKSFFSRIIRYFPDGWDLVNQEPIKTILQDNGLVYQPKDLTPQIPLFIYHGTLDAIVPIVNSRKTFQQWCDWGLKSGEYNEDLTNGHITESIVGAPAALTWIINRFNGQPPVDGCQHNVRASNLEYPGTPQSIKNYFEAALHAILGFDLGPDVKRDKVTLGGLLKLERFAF

Take `O=c1c(O)c(-c2ccccc2)oc2cc(O)cc(O)c12` [GAL, galangin]: in data set [1], the “log10 P of partition between octanol and water phases” value (“log10 P” for short) is reported as 3.9. Also, the “log10D (octanol/water at pH 7.4)” value in data set [1] (pH 7.4) was 0.7. Besides, the Ki in data set [2] (setting [4]) is more than 150 µM. Moreover, the “inhibition of CpLIP2 activity” value in data set [2] (after 1 min pre-incubation, concentration not given) is on record as “no inhibition”. For the same molecule, the “inhibition of CpLIP2 activity” value in data set [2] (setting [5]) is listed as not above 20%. Also, in data set [3], the “percentage of transfer efficiency” value amounted to 24%, the “E (energy transfer efficiency)” value was determined as 0.24, the “J (overlap integral)” value is reported as 0.8 × 10^14 nm^4·cm^−1·M^−1 and the “R0 (Förster distance)” value was 23.6 Å. Also, in data set [3], the “r (distance between acceptor and donor)” value is listed as 28.5 Å; the r/R0 was found to be 1.2.

As for `O=c1c(O)c(-c2ccc(O)cc2)oc2cc(O)cc(O)c12` [KAE, kaempferol], the “log10 P” value in data set [1] was 3.5. In addition, the “inhibition of CpLIP2 activity” value in data set [2] (55 µM (100-fold molar excess, highest concentration), pre-incubation time not stated, 55 µM) turned out to be 90%. Also, the Ki in data set [2] (estimated after 1 min of pre-incubation) is 4 µM. For the same molecule, in data set [2] (setting [4]), the Ki is 6 µM. Further, the inhibition at 27.5 µM in data set [2] (read-out: inhibition of CpLIP2 activity, 27.5 µM (50-fold lipase concentration), pre-incubation time not stated) is more than 80%. Further, the inhibition at 55 µM in data set [2] (read-out: inhibition of CpLIP2 activity, 55 µM (100-fold molar excess, highest concentration), pre-incubation time not stated) stood at 92%. Besides, in data set [2] (read-out: inhibition of CpLIP2 catalytic activity, 14 µM, within 1 min of pre-incubation), the inhibition at 14 µM was determined as 80%. Moreover, in data set [3], the “percentage of transfer efficiency” value was 12%, the “E (energy transfer efficiency)” value turned out to be 0.12, the “J (overlap integral)” value is 10 × 10^14 nm^4·cm^−1·M^−1 and the “R0 (Förster distance)” value was found to be 36.0 Å. For the same molecule, in data set [3], the “r (distance between acceptor and donor)” value amounted to 50.1 Å; the r/R0 was determined as 1.4.

As to `O=c1c(O)c(-c2cc(O)c(O)c(O)c2)oc2cc(O)cc(O)c12` [MYR, myricetin], the “log10 P” value in data set [1] is on record as 2.1. The “inhibitory effect relative to THL (times lower)” value in data set [2] is on record as “about 100 times”. In addition, in data set [2] (setting [4]), the Ki is 60 µM. Besides, the “inhibition of CpLIP2 activity” value in data set [2] (setting [5]) is “about 20%”. Also, in data set [3], the “percentage of transfer efficiency” value stood at 23%, the “E (energy transfer efficiency)” value is 0.23, the “J (overlap integral)” value is 15 × 10^14 nm^4·cm^−1·M^−1 and the “R0 (Förster distance)” value is 38.4 Å. In data set [3], the “r (distance between acceptor and donor)” value is recorded as 46.7 Å; the r/R0 was found to be 1.2.

Turning to `O=c1c(O)c(-c2ccc(O)c(O)c2)oc2cc(O)cc(O)c12` [QUE, quercetin], the “log10 P” value in data set [1] is 2.9. For the same molecule, the “inhibitory effect relative to THL (times lower)” value in data set [2] is “about 100 times”. Further, in data set [2] (setting [4]), the Ki is 80 µM. Moreover, in data set [2] (setting [6]), the inhibition at 14 µM turned out to be 37%, the inhibition at 27.5 µM turned out to be 39% and the inhibition at 55 µM came to 35%. In addition, in data set [3], the “percentage of transfer efficiency” value came to 6%, the “E (energy transfer efficiency)” value was 0.06, the “J (overlap integral)” value was 12 × 10^14 nm^4·cm^−1·M^−1 and the “R0 (Förster distance)” value is recorded as 36.9 Å. Also, in data set [3], the “r (distance between acceptor and donor)” value is recorded as 58.7 Å; the r/R0 was 1.6.

The values above are taken from article PMC6719172, “Inhibition of CpLIP2 Lipase Hydrolytic Activity by Four Flavonols (Galangin, Kaempferol, Quercetin, Myricetin) Compared to Orlistat and Their Binding Mechanisms Studied by Quenching of Fluorescence” (Molecules, 2019).
